Literature values as cited in patent US9468597B1, “Stabilized L-ascorbic acid skin serum” (Dr. Perry Skindustries, LLC, priority 2013, dated 2016).

Columns and labels:
skin = settings: 18% or 10% concentration placed under a patch for 4 days
[1] = without exposure to light

half-life [1]: about 4 day
Structure (SMILES): O=C1O[C@H]([C@@H](O)CO)C(O)=C1O [vitamin C, L-ascorbic acid]
skin irritation (skin): Neither an 18% nor a 10% concentration irritated the skin
